Results as given in patent US11634458B2, “Peptides and compositions for use in cosmetics and medicine” (LIPOTRUE, S.L., priority 2018, dated 2023).

What was measured:
[1] = target: Munc18/Syntaxin-1 (Homo sapiens, UniProt Q16623); test: ELISA-based in vitro Munc18/Syntaxin-1 binding assay; conditions: peptide 0.1, 0.5 and 1 mM; Munc18 100 nM, Syntaxin-1 10 and 5 nM; control = 100% binding
Procedure: The capacity of the peptides to inhibit Munc18 protein-protein interaction with Syntaxin-1, a SNARE complex protein, was functionally evaluated by means of an ELISA-based in vitro Munc18/Syntaxin-1 binding assay. Briefly, the above-mentioned peptides at 0.1, 0.5 and 1 mM were preincubated with their target protein Syntaxin-1 (GST-tagged) at 10 and 5 nM in buffer (20 mM Hepes, 150 mM NaCl, 2 mM MgC2, 2 mM DTT, 0.5% Triton-X100 and 0.5% non-fat milk) for 3 hours at RT. Meanwhile, His-tagged Munc18 was bound to a Nickel-coated 96-well plate at 100 nM and incubated at RT for 1.5 hours. Non-bound protein was subsequently washed away before blocking wells with non-fat milk in wash buffer (PBS+0.02% Triton-X100) for additional 30 minutes. GST-tagged Syntaxin-1 preincubated with the peptides was then added at 10 and 5 nM to the plate and incubated for 2 h at RT. Wells were washed three times with wash buffer before incubation with the primary antibody (GST tag polyclonal antibody—Thermofisher Scientific, Massachusetts, USA) for 45 minutes. Finally, after washing again, HRP-conjugated secondary antibody (Anti-Rabbit-IgG-HRP—Sigma, Missouri, USA) was added and incubated at RT. TMB substrate (3,3′,5,5′-Tetramethylbenzidine) was used to develop signal. […] Amount of binding of Syntaxin-1 protein to Munc18 protein was analysed by measuring absorbance at 450 nm.

[2] = test system: myosin heavy chain; test: Myosin heavy chain protein decrease by immunofluorescence; type: cell-based, human; conditions: vs non-treated cells; for reduction of myosin heavy chain protein levels: 48 hours
Procedure: The potential of said peptide Ac-SEQ ID NO: 8-NH2 to decrease the expression of the protein myosin heavy chain in human skeletal muscle cells was evaluated in vitro by immunofluorescence using a specific antibody against this protein (Biotechne, USA) followed by a secondary fluorescent antibody (Thermofisher, USA). Briefly, human skeletal muscle myoblasts were seeded onto coverslips in SKM-M medium (Tebu-Bio, France) at a density of 3×10^4 cells/cm^2 and incubated overnight at standard culture conditions (37° C., 95% humidity, 5% CO2). Myoblast differentiation to myocyte was then induced with specific differentiation medium (Skeletal Muscle Cell Differentiation Medium, SKM-D medium) and monitored for 7 more days. Differentiated cells were treated with non-cytotoxic concentrations of peptide Ac-SEQ ID NO: 8-NH2 (0.05 mg/mL and 0.5 mg/mL) for additional 48 hours.
Once incubation was finished, cells were fixed with 4% PFA and permeabilized using 0.1% (v/v) Triton (Sigma, USA). Myosin was then stained with 0.5 mg/ml myosin heavy chain antibody during 2 h at room temperature. After proper washing, actin protein was labelled with 50 μg/ml Phalloidin (red) (Sigma, USA) for 1 h and, after washing, cells were stained with 4 μg/ml of the secondary antibody Goat anti-Mouse IgG for 1 h. Finally, nuclei were stained with 3.5 μg/ml Hoescht marker for 10 min (Sigma, USA).
Microscopic images were acquired using the 5× and 10× objectives. Three replicates were used for each condition and images of three to four fields of each coverslip were acquired using the same settings.
Images were analyzed using Image J software. Shortly, threshold was adjusted to select myosin and mean fluorescent was measured. The number of positive cells was counted using DAPI staining. Myosin mean fluorescent intensity was divided by the number of myosin-positive cells. Finally, all data was normalized as follows to obtain the % of myosin compared to non-treated cells: % vs. control=(fluorescence per cell in treated wells/fluorescence per cell in non-treated wells)×100.

[3] = test system: SH-SY5Y cells; test: Exocytosis levels and delay (fluorescent exocytosis reporter); type: cell-based, human; conditions: 0.01 mg/mL, 1 hour, PMA + ionomycin, vs non-treated cells
Procedure: The potential of said peptide Ac-SEQ ID NO: 8-NH2 to modulate the exocytosis of vesicles containing neurotransmitters from a neuroblastoma cell line was evaluated in vitro using SH-SY5Y cells, by fluorescence imaging using a Zeiss axiovert 200 inverted epifluorescence microscope with a 20× objective and a Xenon lamp.
SH-SY5Y cells (Sigma, USA) were cultured in T25 flasks in supplemented medium (DMEM/F12, Gibco, USA). Above 90% confluence, cells were trypsinized with 1 ml of 0.5% (v/v) Trypsin-EDTA. Next, 5 mL of said supplemented medium was added and cell concentration determined. Cells were seeded onto polyLysine-coated 12 mm-treated coverslips in 24 well-plates at 15×10^4 cells/well in supplemented medium (Gibco, USA) and incubated at regular conditions (37° C., 5% CO2). After 24 h cell seeding, cells were transfected with exocytosis reporter using Lipofectamine™ 3000 (Invitrogen, USA) following manufacturer's instructions. Reporter construct contained fusion protein made up of intraluminal-specific proteins and a pH-sensitive fluorescent protein.
For exocytosis monitorization, after 48 h of protein expression, cells were incubated with 0.01 mg/mL of Ac-SEQ ID NO: 8-NH2 peptide or 1 mg/mL of the benchmark acetyl hexapeptide-8 for 1 h at 37° C. and 5% CO2. Non-treated cells were used as basal control. […] Fluorescence imaging was done for the last 10 min of the stimulation protocol. Fluorescence signal of exocytosis reporter was monitored employing 483-512 nm excitation-filter and 525-530 nm emission-filter. […]
Non-treated cells were assayed in N=4 independent experiments with n=16 coverslips (483 cells measured), acetyl hexapeptide-8-treated cells in N=3 independent experiments with n=10 coverslips (328 cells measured) and Ac-SEQ ID NO: 8-NH2-treated cells in N=3 independent experiments with n=8 coverslips (240 cells measured). Cells were selected to individually monitor fluorescence intensity and time-course. Fluorescence peak evoked by ionomycin addition was used to quantify exocytosis by calculating the Area under the curve (AUC) using GraphPad software. Two parameters were defined and analyzed: • Exocytosis levels: For individual cells, total peak area was obtained from AUC analysis and was normalized by the baseline that was defined as fluorescence intensity 3-cycles before lonomycin injection. • Exocytosis delay: For individual cells, response time (min) was obtained from AUC analysis as time frame between lonomycin injection (Y) and initiation of peak (firstX).
Fluorescence values were further normalized as percentage change to non-treated cells on each experiment as: (exocytosis level of treated cells/exocytosis levels non-treated cells)×100 and (response time of treated cells/response time of non-treated cells)×100. […]

Chain of Munc18/Syntaxin-1 (Q16623 whole entry): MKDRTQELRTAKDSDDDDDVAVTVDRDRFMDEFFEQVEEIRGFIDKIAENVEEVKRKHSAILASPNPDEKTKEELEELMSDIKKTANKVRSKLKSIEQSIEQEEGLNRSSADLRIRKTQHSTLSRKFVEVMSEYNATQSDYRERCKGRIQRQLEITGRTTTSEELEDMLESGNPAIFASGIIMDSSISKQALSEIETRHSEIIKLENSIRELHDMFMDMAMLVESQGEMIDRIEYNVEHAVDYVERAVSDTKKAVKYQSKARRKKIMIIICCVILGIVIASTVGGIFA

Substance: Ac-His-Ala-Leu-Arg-Phe-Trp-NH2 [Ac-SEQ ID NO: 8-NH2]
- Maximum inhibition of Munc18-Syntaxin-1 binding [1]: 37%
- reduction of myosin heavy chain protein levels ([2]; 0.05 mg/mL): −26%
- myosin heavy chain protein levels (representative images, FIG. 5) ([2]; 0.05 mg/mL): reduction of myosin heavy chain protein levels
- reduction of myosin heavy chain protein levels ([2]; 0.5 mg/mL): −38%
- change of exocytosis levels [3]: −14%
- exocytosis response time delay [3]: 24%
